Results as given in patent US10426815B2, “Prevention and treatment of itch with an MRGPR antagonist” (THE GENERAL HOSPITAL CORPORATION, priority 2015, dated 2019).
Entries after “also recorded” stand apart in the source; their conditions may differ.

Experiments:
[1] = tested on: mice (itch, scratching bouts); experiment: Mouse cheek model, scratching bouts; type: in vivo; conditions: for provocation of itch (scratching bouts) by the injected substance, WT mice: intradermal injection into the cheek; for provocation of itch (scratching bouts) by the injected substance, WT mice / effect on SP-provoked itch (scratching bouts): 10 μl; for effect on SP-provoked itch (scratching bouts): C57BL/6 (WT) mice, co-injected with SP intradermally into the cheek
Protocol: The mouse cheek model was used to evaluate scratching behavior in Mrgpr cluster Δ−/− and NK1−/− mice. Mice used for behavioral studies were 2 to 3 months old, 20-30 g. Mice were habituated for 30 minutes/day for 3 days prior and for 15 minutes on the day of the study. 10 μl of each compound were delivered by a 31G needle to the cheek. The mice were not shaved prior to injections to avoid irritation. All experiments were performed at consistent times during the day (9:00 am to 2:00 pm) and under the same conditions and in groups of at least 7 mice. The mice were videotaped in a soundproof environment minimize distraction. Recordings were scored for the number of scratching bouts that occur over 1 minute intervals during 25 minute observation periods and the investigator was not aware of the group allocation during scoring the study and behavioral analysis. A scratching bout was initiated by lifting of the hind paw to the area of injection, and ended by returning of the hind paw to the floor or to the mouth. […]
For behavioral studies, average numbers of scratching bouts were compared across groups using one-way ANOVA. Pair-wise comparisons were performed using student t test after correcting p values for multiple comparisons using the Bonferroni procedure. For DRG studies and mast cell degranulation studies, unpaired student t-test was used. Differences were considered to be statistically significant for P<0.05. Data analysis was performed using PRISM 6.

[2] = biological target: T1, PAR2 (Homo sapiens, UniProt P55085); experiment: Calcium imaging of cells transfected with the GPCR (Table 1); type: cell-based
T1 construct: expressed in transfected cells; host or cells: HeLa cells by analogy with the other receptors
T1 sequence (P55085 26-397): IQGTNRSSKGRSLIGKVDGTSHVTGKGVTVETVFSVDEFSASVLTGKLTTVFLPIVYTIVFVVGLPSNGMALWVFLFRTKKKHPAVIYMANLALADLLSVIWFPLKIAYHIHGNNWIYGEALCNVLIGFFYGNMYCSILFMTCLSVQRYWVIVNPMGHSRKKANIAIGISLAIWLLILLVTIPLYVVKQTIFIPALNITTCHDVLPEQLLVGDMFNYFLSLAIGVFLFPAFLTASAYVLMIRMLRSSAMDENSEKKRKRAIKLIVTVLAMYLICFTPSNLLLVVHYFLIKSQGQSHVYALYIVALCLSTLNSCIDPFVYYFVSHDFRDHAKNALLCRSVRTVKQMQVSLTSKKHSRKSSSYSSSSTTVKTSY

[3] = tested on: Mrgprs; experiment: Calcium imaging of transfected HeLa cells, statements on Mrgprs not named singly; type: cell-based; conditions: for inhibition of activation of Mrgprs by SP: FIG. 6a: cells pretreated with inhibitor 10 minutes
Protocol: They were then mixed and incubated at RT for 20 minutes prior to being added to HeLa cells. HeLa cells were grown to confluence, trypsinized and 1×10^6 cells were pelleted in a 15 ml tube by centrifugation at 1000 rpm for 5 minutes. The DMEM-LIPOFECTAMINE 2000-DNA mixture (1 ml) was then added to the cell pellet, suspended and incubated at RT for 5 minutes. 2 ml of complete DMEM with 10% FBS without antibiotics were added to the tube, mixed by inverting the tube, plated into a 96-well glass bottom plate at 50,000 cells/well, and placed in a 37° C. CO2 incubator for 3 hours. HeLa cells transfected with salmon sperm DNA were plated as a control. The medium was changed after 3 hours and left in the incubator. 24 hours after transfection, the medium in the wells was removed and 100 μl of complete DMEM containing 2 μM of FURA-2 were added to each well and left at room temperature in the dark for 1 hr. Following loading with FURA-2, the medium was removed, washed with PBS and replaced with 90 μl of HEPES-buffered saline (20 mM HEPES, 115 mM NaCl, 5.4 mM KCl, 2 mM CaCl2, 0.8 mM MgCl2, 13.8 mM glucose, pH 7.4). Calcium imaging was performed immediately after loading cells with Fura-2, using a ZEISS Axiovert 200M microscope platform equipped with a flipping filter wheel for ratiometric imaging. Axiovision software, version 4.6 was used for calcium image analysis of the cells excited at 340 nm and 380 nm. Agonists were added at 15 seconds after the start of the excitation procedure. […] The software later analyzed all images taken during each excitation period. Ratiometric changes were measured in 10-20 cells in each individual experiment. An average of the fluorescence of the cells in each image was calculated and plotted against time in seconds.

[4] = biological target: T2, MrgX1 (human MRGPRX1) (Homo sapiens, UniProt Q96LB2); experiment: Calcium imaging of cells transfected with the GPCR (Table 1); type: cell-based
T2 construct: expressed in transfected cells; host or cells: HeLa cells, pcDNA3.1(-)
T2 sequence (Q96LB2 whole entry): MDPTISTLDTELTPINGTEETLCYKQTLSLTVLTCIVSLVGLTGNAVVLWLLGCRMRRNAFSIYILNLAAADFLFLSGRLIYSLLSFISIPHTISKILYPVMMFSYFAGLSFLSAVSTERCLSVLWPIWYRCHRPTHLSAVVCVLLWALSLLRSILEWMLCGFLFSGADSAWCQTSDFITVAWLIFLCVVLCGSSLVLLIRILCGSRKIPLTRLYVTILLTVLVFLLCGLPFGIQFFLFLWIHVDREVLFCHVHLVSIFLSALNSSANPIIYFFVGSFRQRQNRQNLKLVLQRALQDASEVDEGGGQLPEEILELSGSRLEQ
Protocol: Human NK1 cDNA was obtained from LIFE Technologies, PCR cloned with Xho I-Hind III ends and cloned into pcDNA3.1(−). Mouse NK2 and NK3 expression-ready vectors were obtained from […] (Piscataway, N.J.). All other Mrgprs (human MRGPRX1, human MRGPRX2, human MRGPRX3, human MRGPRX4, mouse MrgprA2a, mouse MrgprA2b, mouse MrgprA3, mouse MrgprA4, mouse MrgprA9, mouse MrgprA10, mouse MrgprB4 and mouse MrgprB5) were cloned by PCR from genomic DNAs and inserted into pcDNA3.1 (−).
10 μg of expression vector (human MRGPRX2, mouse MrgprA1 or NK1) and 10 μl of LIPOFECTAMINE 2000 transfection reagent were diluted into 0.5 ml of DMEM and separately left at room temperature (RT) for 5 min. They were then mixed and incubated at RT for 20 minutes prior to being added to HeLa cells. HeLa cells were grown to confluence, trypsinized and 1×10^6 cells were pelleted in a 15 ml tube by centrifugation at 1000 rpm for 5 minutes. The DMEM-LIPOFECTAMINE 2000-DNA mixture (1 ml) was then added to the cell pellet, suspended and incubated at RT for 5 minutes. 2 ml of complete DMEM with 10% FBS without antibiotics were added to the tube, mixed by inverting the tube, plated into a 96-well glass bottom plate at 50,000 cells/well, and placed in a 37° C. CO2 incubator for 3 hours. HeLa cells transfected with salmon sperm DNA were plated as a control. The medium was changed after 3 hours and left in the incubator. 24 hours after transfection, the medium in the wells was removed and 100 μl of complete DMEM containing 2 μM of FURA-2 were added to each well and left at room temperature in the dark for 1 hr.
Calcium imaging was performed immediately after loading cells with Fura-2, using a ZEISS Axiovert 200M microscope platform equipped with a flipping filter wheel for ratiometric imaging. Axiovision software, version 4.6 was used for calcium image analysis of the cells excited at 340 nm and 380 nm. Agonists were added at 15 seconds after the start of the excitation procedure. Antagonists were added five minutes before imaging with the agonists. Images were taken every 5 seconds, including at zero time, during a 90 second period or longer if required. The software later analyzed all images taken during each excitation period. Ratiometric changes were measured in 10-20 cells in each individual experiment. An average of the fluorescence of the cells in each image was calculated and plotted against time in seconds.

[5] = C57BL/6 mice, co-injected intradermally into the cheek, 10 μL, 500 μM of each substance

Question: “SLIGRL: tethered hexapeptide ligand of mouse PAR2 (SEQ ID NO: 7)” was tested. Which “provocation of itch (scratching bouts) by the injected substance, WT mice” value [1] did it give?
Answer: provoke itch

Question: And the “activation of PAR2 by the substance (in words)” value [2]?
Answer: activates

Question: What does the source list for “Boc-Gln-D-Trp(Formyl)-Phe benzyl ester trifluoroacetate [QWF]”?
Answer: inhibition of activation of Mrgprs by SP [3]: blocks; inhibition of activation of Mrgprs by compound 48/80 ([3]; FIG. 7b: compound 48/80 1 μM, QWF 1 μM): antagonizes; also recorded: inhibits; effect on SP-provoked itch (scratching bouts) ([1]; 500 μM of each substance): significantly decreased; also recorded: decreased SP-induced itch to baseline; also recorded: decreased SP-provoked itch to baseline; also recorded: reduced to baseline; effect on SLIGRL-provoked itch (scratching bouts) [1, 5]: blocks; also recorded: reduced to baseline; also recorded: significantly decreased; effect on compound 48/80-provoked itch (scratching bouts) [1, 5]: blocks compound 48/80-induced itch to baseline; also recorded: blocks compound 48/80-provoked itch to baseline; also recorded: reduced to baseline; also recorded: significantly decreased; inhibition of human MRGPRX1 activation by chloroquine (CQ) ([4]; FIG. 7c: CQ 100 μM, QWF 100 μM): does not affect; also recorded: does not inhibit; inhibition of PAR2 activation by 48/80 [2]: antagonizes; inhibition of PAR2 activation by SLIGRL [2]: not

Question: Which results are given for “SP: inflammatory undecapeptide neuropeptide of the tachykinin family, synthesized by GenScript”?
Answer: SP-provoked itch in NK1 knockout mice ([1]; cheek, intradermal, FIG. 5a: 10 μL SP 1 mM, compared to WT): induced itch; also recorded: provoked itch; also recorded: not decreased; SP-provoked itch in Mrgpr cluster knockout mice ([1]; cheek, intradermal, FIG. 5a: 10 μL SP 1 mM, compared to WT, listed as Substance P): does not provoke itch; provocation of itch (scratching bouts) by the injected substance, WT mice [1]: induced itch; also recorded: provoked itch; provocation of itch (scratching bouts) by the injected substance, WT mice ([1]; listed as Substance P): provokes itch; activation of human MRGPRX1 by the substance (in words) ([4]; SP 10 μM (FIG. 9), chloroquine 100 μM (FIG. 7c)): does not activate

Question: For `FC(F)(F)c1cc(CO[C@H]2CCCN[C@H]2c2ccccc2)cc(C(F)(F)F)c1` [L-733060], which “inhibition of activation of Mrgprs by SP” value [3] is on record?
Answer: did not impact

Question: And the “inhibition of activation of Mrgprs by SP” value ([3]; listed as L733060)?
Answer: do not inhibit

Question: What about the “effect on SP-provoked itch (scratching bouts)” value ([1]; 500 μM of each substance) of the same compound?
Answer: only minimally effective; also recorded: not effective

Question: And the “effect on SP-provoked itch (scratching bouts)” value ([1]; 500 μM of each substance, listed as L733060)?
Answer: does not significantly decrease and not and lack of significant blockade and does not

Question: Which “inhibition of activation of Mrgprs by SP” value [3] does the source give for `C[C@@H](O[C@H]1OCCN(Cc2n[nH]c(=O)[nH]2)[C@H]1c1ccc(F)cc1)c1cc(C(F)(F)F)cc(C(F)(F)F)c1` [aprepitant] here?
Answer: did not impact; also recorded: do not inhibit
